# Data reported in ChEMBL document CHEMBL1142727 (J Med Chem, 2005).
# Key:
# Cholinesterase = Cholinesterase (Homo sapiens, UniProt P06276); assay: Inhibitory concentration against human butyrylcholinesterase
# Acetylcholinesterase [1] = biological target: T1, Acetylcholinesterase (Bos taurus, UniProt P23795)
# T1 sequence (P23795 whole entry): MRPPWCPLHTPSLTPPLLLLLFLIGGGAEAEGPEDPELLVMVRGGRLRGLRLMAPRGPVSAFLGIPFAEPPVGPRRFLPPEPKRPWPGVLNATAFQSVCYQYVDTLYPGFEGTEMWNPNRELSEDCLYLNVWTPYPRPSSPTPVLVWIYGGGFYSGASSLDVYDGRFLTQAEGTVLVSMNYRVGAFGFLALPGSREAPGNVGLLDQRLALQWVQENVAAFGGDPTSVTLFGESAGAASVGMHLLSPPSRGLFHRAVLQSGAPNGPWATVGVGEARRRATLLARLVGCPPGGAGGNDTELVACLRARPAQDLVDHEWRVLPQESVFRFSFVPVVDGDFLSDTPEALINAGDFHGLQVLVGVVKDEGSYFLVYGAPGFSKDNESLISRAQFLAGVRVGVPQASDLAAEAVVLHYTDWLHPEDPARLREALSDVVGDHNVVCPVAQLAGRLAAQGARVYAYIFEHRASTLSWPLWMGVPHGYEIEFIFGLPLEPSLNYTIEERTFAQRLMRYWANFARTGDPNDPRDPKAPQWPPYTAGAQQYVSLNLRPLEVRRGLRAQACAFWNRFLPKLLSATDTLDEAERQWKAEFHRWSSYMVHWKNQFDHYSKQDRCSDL
# Description: Dissociation constant for inhibition of fetal bovine serum Acetylcholinesterase
# Butyrylcholinesterase = Butyrylcholinesterase (Equus caballus, UniProt Q9N1N9)
# Sequence of Butyrylcholinesterase (Q9N1N9 whole entry): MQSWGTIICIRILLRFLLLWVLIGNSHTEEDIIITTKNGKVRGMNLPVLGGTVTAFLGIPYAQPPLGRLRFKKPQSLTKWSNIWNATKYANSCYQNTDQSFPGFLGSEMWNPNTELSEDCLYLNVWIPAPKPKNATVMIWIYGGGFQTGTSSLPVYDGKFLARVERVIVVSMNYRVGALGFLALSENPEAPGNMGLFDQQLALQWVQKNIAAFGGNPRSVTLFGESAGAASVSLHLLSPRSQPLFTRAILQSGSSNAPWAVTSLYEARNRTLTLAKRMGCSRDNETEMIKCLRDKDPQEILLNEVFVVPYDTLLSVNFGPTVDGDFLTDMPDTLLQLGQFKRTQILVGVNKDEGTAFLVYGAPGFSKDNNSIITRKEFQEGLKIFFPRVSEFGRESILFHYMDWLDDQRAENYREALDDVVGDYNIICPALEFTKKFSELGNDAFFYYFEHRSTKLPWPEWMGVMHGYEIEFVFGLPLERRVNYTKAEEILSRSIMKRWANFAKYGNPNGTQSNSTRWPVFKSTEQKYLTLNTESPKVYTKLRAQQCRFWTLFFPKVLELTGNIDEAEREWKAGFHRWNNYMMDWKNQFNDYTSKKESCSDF
# Description: Dissociation constant for inhibition of equine Butyrylcholinesterase (BuChE)
# [2] = Inhibitory ratio for bovine acetylcholinesterase and equine butyrylcholinesterase
# Acetylcholinesterase [3] = biological target: Acetylcholinesterase (Homo sapiens, UniProt P22303); assay: Inhibitory concentration against human Acetylcholinesterase
# Sequence of Acetylcholinesterase (Homo sapiens, UniProt P22303) (P22303 whole entry): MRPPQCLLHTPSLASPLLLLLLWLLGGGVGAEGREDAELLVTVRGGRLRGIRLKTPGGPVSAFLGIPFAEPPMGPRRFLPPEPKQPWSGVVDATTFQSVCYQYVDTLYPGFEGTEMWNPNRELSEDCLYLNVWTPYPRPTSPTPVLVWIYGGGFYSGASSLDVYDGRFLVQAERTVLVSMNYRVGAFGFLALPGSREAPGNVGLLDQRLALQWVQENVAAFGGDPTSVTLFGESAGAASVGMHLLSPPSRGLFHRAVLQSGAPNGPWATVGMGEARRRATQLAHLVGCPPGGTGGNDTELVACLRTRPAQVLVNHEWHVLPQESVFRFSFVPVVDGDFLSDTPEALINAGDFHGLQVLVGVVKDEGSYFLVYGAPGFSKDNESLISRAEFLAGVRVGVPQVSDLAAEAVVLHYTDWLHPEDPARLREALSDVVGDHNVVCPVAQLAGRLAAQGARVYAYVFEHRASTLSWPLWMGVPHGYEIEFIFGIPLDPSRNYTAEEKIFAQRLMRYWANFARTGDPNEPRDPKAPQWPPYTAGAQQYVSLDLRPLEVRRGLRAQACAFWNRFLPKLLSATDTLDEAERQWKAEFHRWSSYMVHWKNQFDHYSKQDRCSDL
# Sequence of Cholinesterase (P06276 whole entry): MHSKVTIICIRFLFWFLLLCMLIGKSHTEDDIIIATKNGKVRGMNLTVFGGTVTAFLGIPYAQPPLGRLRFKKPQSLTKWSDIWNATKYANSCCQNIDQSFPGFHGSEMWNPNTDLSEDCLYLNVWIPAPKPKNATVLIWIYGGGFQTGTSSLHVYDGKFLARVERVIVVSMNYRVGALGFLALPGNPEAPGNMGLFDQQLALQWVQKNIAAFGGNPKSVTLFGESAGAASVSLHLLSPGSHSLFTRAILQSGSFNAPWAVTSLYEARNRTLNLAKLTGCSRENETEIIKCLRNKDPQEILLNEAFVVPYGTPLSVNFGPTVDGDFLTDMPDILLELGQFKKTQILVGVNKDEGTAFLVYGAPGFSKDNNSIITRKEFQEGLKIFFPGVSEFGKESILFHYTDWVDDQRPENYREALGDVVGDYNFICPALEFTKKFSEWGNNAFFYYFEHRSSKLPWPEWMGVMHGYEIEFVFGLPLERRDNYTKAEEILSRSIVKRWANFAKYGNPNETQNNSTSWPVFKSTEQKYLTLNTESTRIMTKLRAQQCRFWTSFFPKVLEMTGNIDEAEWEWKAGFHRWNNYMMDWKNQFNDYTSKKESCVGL
SMILES,IC50 (Cholinesterase) [nM],Ki (Acetylcholinesterase [1]) [nM],Ki (Butyrylcholinesterase) [nM],Ratio [2],IC50 (Acetylcholinesterase [3]) [nM]
CC(=O)N(CCCNc1c2c(nc3ccccc13)CCCC2)CCCNc1c2ccccc2nc2ccccc12,3.9,1500,2,750,–
CCN(CC)C(C)CN1c2ccccc2Sc2ccccc21 (stereo not given) [ETHOPROPAZINE],–,–,20,–,–
c1ccc2c(NCCCCCCCCCSc3c4c(nc5ccccc35)CCCC4)c3c(nc2c1)CCCC3,–,195,2.3,86,–
c1ccc2c(NCCCCCNc3c4c(nc5ccccc35)CCCC4)c3c(nc2c1)CCCC3,–,210,100,2.1,–
OCCN(CCCNc1c2c(nc3ccccc13)CCCC2)CCCNc1c2ccccc2nc2ccccc12,–,0.65,3.3,0.2,–
CN(CCCCSc1c2c(nc3ccccc13)CCCC2)CCCNc1c2c(nc3ccccc13)CCCC2,–,130,0.68,191,–
CN(CCCNc1c2c(nc3ccccc13)CCCC2)CCCSc1c2c(nc3ccccc13)CCCC2,–,9.1,4.2,2.2,–
CN(CCCNc1c2c(nc3ccccc13)CCCC2)CCCNc1c2c(nc3ccccc13)CCCC2,10.4,–,–,0.01,0.3
CC(=O)N(CCCCSc1c2c(nc3ccccc13)CCCC2)CCCNc1c2c(nc3ccccc13)CCCC2,–,47,0.11,427,–
C=CCN(CCCNc1c2c(nc3ccccc13)CCCC2)CCCNc1c2ccccc2nc2ccccc12,–,1.6,0.76,2.1,–
c1ccc2c(NCCCCCCCCSc3c4c(nc5ccccc35)CCCC4)c3c(nc2c1)CCCC3,0.77,–,–,625,–
c1ccc2c(NCCCCCCCSc3c4c(nc5ccccc35)CCCC4)c3c(nc2c1)CCCC3,–,–,–,9.7,–
CC(=O)N(CCCNc1c2c(nc3ccccc13)CCCC2)CCCSc1c2c(nc3ccccc13)CCCC2,–,50,0.23,217,–
